Measured values reported in patent US9718790B2, “Triazine derivative and pharmaceutical composition having an analgesic activity comprising the same” (SHIONOGI & CO., LTD., priority 2010, dated 2017).
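Further: stimulus was 50 nM ATP with fluorescence followed for 3 min, and the response per well was peak post-ATP fluorescence divided by the reading at measurement start.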

These compounds were tested against human P2X3 receptor (Homo sapiens (Human), UniProt P56373) (assay: Evaluation of human P2X3 receptor inhibitory activity (Fluo-3 calcium fluorescence, FDSS 3000, ATP stimulation)). Details: C6BU-1 cells stably expressing human P2X3 receptor.
Chain of human P2X3 receptor (P56373 whole entry): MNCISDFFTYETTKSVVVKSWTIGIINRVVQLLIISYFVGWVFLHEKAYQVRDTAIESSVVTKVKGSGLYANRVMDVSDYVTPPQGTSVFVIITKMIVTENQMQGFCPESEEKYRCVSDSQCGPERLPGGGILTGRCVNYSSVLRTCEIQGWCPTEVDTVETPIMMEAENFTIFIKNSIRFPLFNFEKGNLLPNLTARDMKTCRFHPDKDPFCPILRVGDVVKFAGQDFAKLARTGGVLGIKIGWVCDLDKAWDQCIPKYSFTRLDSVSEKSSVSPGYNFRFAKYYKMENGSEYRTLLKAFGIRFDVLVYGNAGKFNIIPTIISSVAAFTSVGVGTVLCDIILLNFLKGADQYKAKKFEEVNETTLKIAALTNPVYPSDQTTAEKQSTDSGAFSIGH
Format: cell-based
`O=c1[nH]/c(=N\c2ccc(OC3CCC3)cc2)n(Cc2ccc(Cl)cc2)c(=O)n1CCCO` [Compound I-1918] showed an IC50 of 12 nM.
With `COC(=O)[C@@H](C)Cn1c(=O)[nH]/c(=N\c2ccc(OC3COC3)cc2)n(Cc2ccc(C)cc2)c1=O` [Compound I-1218] the IC50 was 61 nM.
`COc1cc(/N=c2\[nH]c(=O)n(CCC(=O)O)c(=O)n2Cc2ccc(Cl)cc2)ccc1CC(C)C` [Compound I-1355] showed an IC50 of 177 nM.
`COc1cc(/N=c2\[nH]c(=O)n(CCCOC3CCCCO3)c(=O)n2Cc2ccc(Cl)cc2)ccc1OC(C)C` (centres unmarked) [Compound I-2000] was tested, and the IC50 was 3 nM.
`CNC(=O)Cn1c(=O)[nH]/c(=N\c2ccc(Oc3ccc(C)nc3)cc2)n(Cc2ccc(Cl)cc2)c1=O` [Compound I-1945] gave an IC50 of 8 nM.
In the case of `CCOC(=O)CCn1c(=O)[nH]/c(=N\c2ccc3nc(C)sc3c2)n(CC2CCC(C)CC2)c1=O` (centres unmarked) [Compound I-1990], the IC50 is reported as 2 nM.
`Cc1cc2cc(/N=c3\[nH]c(=O)n(CC4COC(C)(C)OC4)c(=O)n3Cc3ccc(Cl)cc3)ccc2o1` [Compound I-2069] showed an IC50 of 7 nM.
`CCn1c(=O)[nH]/c(=N\c2ccc(Oc3ccnc(N)c3)cc2)n(Cc2ccc(Cl)cc2)c1=O` [Compound I-2166] was tested, and the IC50 was 10 nM.
Work on `CC(C)Oc1cccc(Cn2c(=O)n(Cc3ccc(Cl)cc3)c(=O)n(C(C)C)c2=O)c1` [Compound I-1292] yielded an IC50 of 445 nM.
`CCCc1ccc(/N=c2\[nH]c(=O)n(C[C@H](C)C(=O)OC)c(=O)n2Cc2ccc(Cl)cc2)cc1` [Compound I-0621] showed an IC50 of 58 nM.
`CCOC(=O)CCn1c(=O)[nH]/c(=N\c2ccc(OC3CCC3)cc2)n(Cc2ccc(C)cc2)c1=O` [Compound I-1282] showed an IC50 of 4 nM.
With `C[C@@H](Cn1c(=O)[nH]/c(=N\c2ccc3oc(C(=O)O)cc3c2)n(Cc2ccc(Cl)cc2)c1=O)C(=O)O` [Compound I-1952] the IC50 was 781 nM.
With `CCn1c(=O)[nH]/c(=N\c2ccc(Oc3ccnc(C(=O)O)c3)cc2)n(CC2CCC3(CC2)CC3)c1=O` [Compound I-2177] the IC50 was 14 nM.
In the case of `CCOC(=O)CCn1c(=O)[nH]/c(=N\c2ccc(OC(C)C)c(C3CC3)c2)n(Cc2ccc(C)cc2)c1=O` [Compound I-1300], the IC50 is reported as 18 nM.
`COC(=O)[C@@H]1CC(n2c(=O)[nH]/c(=N\c3ccc(OC(C)C)c(C)c3)n(Cc3ccc(Cl)cc3)c2=O)CN1C(=O)OC(C)(C)C` (some centres unmarked) [Compound I-0699] showed an IC50 of 37 nM.
`Cc1ccc(Oc2ccc(/N=c3\[nH]c(=O)n([C@H](C)[C@H](C)C(=O)O)c(=O)n3Cc3ccc(Cl)cc3)cc2)cn1` [Compound I-1389] was tested, and the IC50 was 12 nM.
`COC(=O)[C@@H](C)Cn1c(=O)[nH]/c(=N\c2ccc(OC(C)C)c(F)c2)n(Cc2ccc(F)cc2)c1=O` [Compound I-0617] showed an IC50 of 67 nM.
`Cc1ccc(Cn2c(=O)n(CCC(=O)O)c(=O)[nH]/c2=N\c2ccc(CC(C)C)c(Cl)c2)cc1` [Compound I-1427] was tested, and the IC50 was 8 nM.
Compound `CC(C)Oc1ccc(/N=c2\[nH]c(=O)n(CC(=O)OC3CCOCC3)c(=O)n2Cc2ccc(Cl)cc2)cc1Cl` [Compound I-0673] has an IC50 of 8 nM.
With `Cc1ccc(Cn2c(=O)n(C[C@H](C)C(=O)O)c(=O)[nH]/c2=N\c2ccc(C(=O)C3CC3)cc2)cc1` [Compound I-1305] the IC50 was 227 nM.
For `CCCc1ccc(/N=c2\[nH]c(=O)n(CCC(=O)O)c(=O)n2Cc2ccc(C)cc2)cc1C` [Compound I-1223], the IC50 was 297 nM.
In the case of `COC(=O)[C@H](C)[C@H](C)n1c(=O)[nH]/c(=N\c2ccc(OC3CCC3)cc2)n(Cc2ccc(C)cc2)c1=O` [Compound I-1379], the IC50 is reported as 10 nM.
With `Cc1ccc(Cn2c(=O)n(CCC(=O)O)c(=O)[nH]/c2=N\c2cccc(Cl)c2)cc1` [Compound I-2047] the IC50 was 384 nM.
`CCn1c(=O)[nH]/c(=N\c2ccc(Oc3cc(C(=O)O)n[nH]3)cc2)n(Cc2ccc(Cl)cc2)c1=O` [Compound I-2194] gave an IC50 of 52 nM.
With `Cc1ccc(Cn2c(=O)n([C@@H](C)[C@@H](C)C(=O)O)c(=O)[nH]/c2=N\c2cccc(C(F)(F)F)c2)cc1` [Compound I-1335] the IC50 was 30 nM.
For `COc1ccc(CN2C(=O)CC[C@@H]2Cn2c(=O)[nH]/c(=N\c3ccc(OC(C)C)c(F)c3)n(Cc3ccc(Cl)cc3)c2=O)cc1` [Compound I-0688], the IC50 was 5 nM.
Work on `CCCc1ccc(/N=c2\[nH]c(=O)n(C[C@H](C)C(=O)OC)c(=O)n2Cc2ccc(C)cc2)cc1Cl` [Compound I-1277] yielded an IC50 of 15 nM.
For `COC(=O)C(C)(C)Cn1c(=O)[nH]/c(=N\c2ccc(OC(C)C)c(OC)c2)n(Cc2ccc(Cl)cc2)c1=O` [Compound I-1273], the IC50 was 7 nM.
Compound `CCOC(=O)c1csc(Oc2ccc(/N=c3\[nH]c(=O)n(CC)c(=O)n3Cc3ccc(Cl)cc3)cc2)n1` [Compound I-2191] has an IC50 of 5 nM.

Same assay, conditions: C6BU-1 cells stably expressing human P2X3 receptor, Fluo-3 fluorescence, FDSS 3000
In the case of `CC(C)Oc1ccc(/N=c2\[nH]c(=O)n(CC3(C(=O)O)CC3)c(=O)n2Cc2ccc(Cl)cc2)cc1` [Compound I-0988], the IC50 is reported as 93 nM.
Work on `CNC(=O)[C@@H](C)Cn1c(=O)[nH]/c(=N\c2ccc(Oc3ccc(O)nc3)cc2)n(Cc2ccc(C)cc2)c1=O` [Compound I-1601] yielded an IC50 of 24 nM.
`C[C@@H](C(=O)O)[C@H](C)n1c(=O)[nH]/c(=N\c2ccc3c(c2)CCCC3)n(Cc2ccc(Cl)cc2)c1=O` [Compound I-1796] was tested, and the IC50 was 587 nM.
`Cc1ccc(Cn2c(=O)n(C[C@H](C)C(=O)O)c(=O)[nH]/c2=N\c2ccc(OC(F)F)c(Cl)c2)cc1` [Compound I-1032] was tested, and the IC50 was 33 nM.
With `O=c1[nH]/c(=N\c2ccc(Oc3ccnc(O)c3)cc2)n(Cc2ccc(Cl)cc2)c(=O)n1C[C@H](O)CO` [Compound I-1731] the IC50 was 5 nM.
Compound `Cc1cc(/N=c2\[nH]c(=O)n(CC3CN(C(=O)OC(C)(C)C)C3)c(=O)n2Cc2ccc(Cl)cc2)ccc1OC(C)C` [Compound I-1640] has an IC50 of 13 nM.
In the case of `CCc1oc2ccc(/N=c3\[nH]c(=O)n(CC4(C(=O)O)CC4)c(=O)n3Cc3ccc(C)cc3)cc2c1C` [Compound I-1555], the IC50 is reported as 16 nM.
`CSc1cccc(/N=c2\[nH]c(=O)n(C[C@H](C)C(=O)O)c(=O)n2Cc2ccc(C)cc2)c1` [Compound I-1154] was tested, and the IC50 was 131 nM.

Same assay, conditions: human P2X3 receptor, Test Example 1
In the case of `CCOC(=O)CCn1c(=O)[nH]/c(=N\c2ccc(OCC)c(Cl)c2)n(Cc2ccc(C)cc2)c1=O` [Compound I-0867], the IC50 is reported as 6 nM.
Work on `O=c1[nH]/c(=N\c2ccc(Oc3ccc4[nH]cnc4c3)cc2)n(Cc2ccc(Cl)cc2)c(=O)n1CCO` [Compound I-2449] yielded an IC50 of 9 nM.
`CCn1c(=O)[nH]/c(=N\c2ccc(Oc3ccc(C#N)nn3)cc2)n(Cc2ccc(Cl)cc2)c1=O` [Compound I-2601] gave an IC50 of 12 nM.
Work on `NC(=O)Cn1c(=O)[nH]/c(=N\c2ccc(Oc3ccnnc3)cc2)n(Cc2ccc(Cl)cc2)c1=O` [Compound I-2695] yielded an IC50 of 10 nM.
In the case of `Cc1cnc(Oc2ccc(/N=c3\[nH]c(=O)n(CCO)c(=O)n3Cc3ccc(Cl)cc3)cc2)s1` [Compound I-2457], the IC50 is reported as 13 nM.
Work on `Cc1nsc(Oc2ccc(/N=c3\[nH]c(=O)n(CC(=O)O)c(=O)n3Cc3ccc(Cl)cc3)cc2)n1` [Compound I-2579] yielded an IC50 of 71 nM.
With `Cc1ccc(Cn2c(=O)n(C)c(=O)[nH]/c2=N\c2ccc(Oc3cccc(/C=C/C(=O)O)c3)cc2)cc1` [Compound I-2363] the IC50 was 9 nM.
For `CCn1c(=O)[nH]/c(=N\c2ccc(Oc3cccc(CO)n3)cc2)n(Cc2ccc(Cl)cc2)c1=O` [Compound I-2639], the IC50 was 26 nM.
`Cc1cc(/N=c2\[nH]c(=O)n([C@H]3CC[C@H](C(=O)O)CC3)c(=O)n2Cc2ccc(Cl)cc2)ccc1OC(C)C` [Compound I-0850] gave an IC50 of 62 nM.
Compound `Cc1cc(/N=c2\[nH]c(=O)n(C[C@H](C)C(=O)O)c(=O)n2Cc2ccc(Br)cc2)ccc1OC(C)C` [Compound I-0868] has an IC50 of 23 nM.
With `CCn1c(=O)[nH]/c(=N\c2ccc(Oc3cccc(C#N)n3)c(F)c2)n(Cc2ccc(Cl)cc2)c1=O` [Compound I-2492] the IC50 was 4 nM.
For `COCCn1c(=O)[nH]/c(=N\c2ccc(Oc3ccnc(C(=O)O)c3)cc2)n(Cc2ccc(Cl)cc2)c1=O` [Compound I-2552], the IC50 was 5 nM.
In the case of `CCc1oc2ccc(/N=c3\[nH]c(=O)n(CCC(=O)O)c(=O)n3Cc3ccc(C)cc3)cc2c1C` [Compound I-1508], the IC50 is reported as 18 nM.
`CCn1c(=O)[nH]/c(=N\c2ccc(Oc3cncc(C(N)=O)n3)cc2)n(Cc2ccc(C)cc2)c1=O` [Compound I-2472] showed an IC50 of 3 nM.
`Cc1cc(/N=c2\[nH]c(=O)n(C[C@H](C)C(=O)O)c(=O)n2Cc2ccc(Cl)cc2)cnc1OC1CCC1` [Compound I-1483] showed an IC50 of 87 nM.
Work on `CCn1c(=O)[nH]/c(=N\c2ccc(Sc3ccc(C(=O)O)cc3)cc2)n(Cc2ccc(Cl)cc2)c1=O` [Compound I-2603] yielded an IC50 of 125 nM.
`CC(CO)(CO)Cn1c(=O)[nH]/c(=N\c2ccc(Oc3ccon3)c(F)c2)n(Cc2ccc(F)cc2)c1=O` [Compound I-2574] showed an IC50 of 11 nM.
In the case of `O=C(Cn1c(=O)[nH]/c(=N\c2ccc(Oc3nccs3)cc2)n(Cc2ccc(Cl)cc2)c1=O)NCCO` [Compound I-2646], the IC50 is reported as 8 nM.
For `Cn1c(=O)[nH]/c(=N\c2ccc(Oc3cccc(C(N)=O)n3)cc2)n(Cc2ccc(Cl)cc2)c1=O` [Compound I-2274], the IC50 was 5 nM.
In the case of `CC(C)(C)OC(=O)NCCn1c(=O)[nH]/c(=N\c2ccc(Oc3ccon3)cc2)n(Cc2ccc(Cl)cc2)c1=O` [Compound I-2522], the IC50 is reported as 11 nM.
In the case of `CCn1c(=O)[nH]/c(=N\c2ccc(Oc3ccc(C(=O)OC)cn3)cc2)n(C[C@H]2CC[C@H](C)CC2)c1=O` [Compound I-2700], the IC50 is reported as 353 nM.
`CC(C)Oc1ccc(-n2c(NCc3ccc(Cl)cc3)nc(=S)n(C(C)C)c2=O)cc1` [Compound I-2255] showed an IC50 of 543 nM.
Work on `COC(=O)C1(Cn2c(=O)[nH]/c(=N\c3ccc(OC(C)C)c(C)c3)n(Cc3ccc(Cl)cc3)c2=O)COC1` [Compound I-1480] yielded an IC50 of 2 nM.
For `CC(CO)(CO)Cn1c(=O)[nH]/c(=N\c2ccc(Oc3ccsn3)cc2)n(Cc2ccc(Cl)cc2)c1=O` [Compound I-2531], the IC50 was 4 nM.
With `CCn1c(=O)[nH]/c(=N\c2ccc(O[C@H]3CN[C@H](C(=O)OC)C3)cc2)n(Cc2ccc(Cl)cc2)c1=O` [Compound I-2277] the IC50 was 107 nM.
In the case of `O=C(O)Cn1c(=O)[nH]/c(=N\c2ccc(Oc3ncns3)cc2)n(Cc2ccc(Cl)cc2)c1=O` [Compound I-2659], the IC50 is reported as 277 nM.
`Cn1c(=O)[nH]/c(=N\c2ccc(Oc3cc(C(N)=O)n[nH]3)cc2)n(Cc2ccc(Cl)cc2)c1=O` [Compound I-2416] gave an IC50 of 54 nM.
`Cn1c(=O)[nH]/c(=N\c2ccc(Oc3nc(C(N)=O)cs3)cc2)n(Cc2ccc(Cl)cc2)c1=O` [Compound I-2415] showed an IC50 of 9 nM.
